Values after ≈ are worked out from the molar mass of the structure shown.
Tests used:
[1] = molecular target: T1, Bruton's tyrosine kinase (BTK) (Homo sapiens, UniProt Q06187); test: BTK cell-free enzymatic assay; format: biochemical
T1 construct: from tissue; host or cells: whole blood
Text: (S)-1-(1-acryloylpiperidin-3-yl)-2-fluoro-5,6,7,8,9,10-hexahydrocyclohepta[b]indole-4-carboxamide, hereinafter referred to as “Compound 1”, is an orally available, selective, potent inhibitor of Bruton's tyrosine kinase (BTK), thereby providing potential treatment options in BTK-driven diseases. The potency of Compound 1 for BTK inhibition is in the nM range in both cell-free enzymatic and whole blood functional assays.

[2] = Further solubility testing in excipients, HPLC; format: physicochemical
Procedure: Compound 1 (˜0.5 g) was added to each excipient until visually saturated. The mixtures were incubated on a temperature-controlled mixer with glass beads to facilitating mixing, for at least 48 hours at room temperature (liquid excipients) or 40° C. (semisolid excipients). The samples were then centrifuged using 0.45 μm PVDF filter to separate the liquid and solid portions. The amount of dissolved compound in the filtrate was quantified by HPLC. XRPD analysis of any solid powder confirmed there was no change in form. The solubility results are presented in Table 16 and show Compound 1 had high solubility (>30 mg/g) in most of the screened excipients.

[3] = Solubility testing in aqueous media at various pH (Form III); format: physicochemical; conditions: thermodynamic from solid
Procedure: 0.833 mL concentrated hydrochloric acid was diluted to 100 mL with water (pH=1.0).
Added appropriate amount of water to 0.1N HCl, adjust the pH to 1.2.
KH2PO4 (1360.0 mg) and NaOH (310.0 mg) are mixed in a 200 mL volumetric flask. Water was added to dissolve the solid and dilute to the volume. The flask was shaken to achieve good mixing. (pH=7.42).
Solubility was measured in pH 1.0 water, pH 1.2 buffer and pH 7.4 buffer at room temperature and 37° C. About 10-15 mg of sample was weighed into sample vials and then 2.0/3.0 mL of 0.1 N HCl solution, pH 1.2 buffer and pH 7.4 buffer media, and water were added, respectively. Samples were run in duplicate for each medium. The suspensions were shaken at room temperature or 37° C. Residual solid was collected for XRPD analysis, though no form change occurred during testing. In all instances, very low solubility was observed.

[4] = Stability testing of formulations and Compound 1 alone (impurities, HPLC); format: physicochemical; conditions: 40° C.
Procedure: Both gels were prepared using Titanium Dioxide, Iron Oxide, Red and FD&C Blue #1 as colorants. One dried swatch of gel 004007 was added to the gel 1 samples and one dried swatch of 004013 was added to gel 2.
The samples were stored in 6 mL amber glass vials at: room temperature, 40° C., 50° C. and 5° C. for up 8 weeks. Control samples (Compound 1 alone) were analyzed in parallel with the study samples and control peaks were subtracted from the total impurities.

[5] = system: CYP3A; test: Phase 1 drug-drug interaction with itraconazole (strong CYP3A inhibitor); format: in vivo, human; conditions: for AUC(0-inf) / Cmax / T1/2 / Tmax: Cohort 12, 2 mg single dose; for AUC(0-inf) / Cmax: mean; for T1/2 / Tmax: median
Procedure: Cohort 12 is an open-label, fixed-sequence, multiple-dose DDI study with itraconazole (ITZ). Subjects receive a single oral dose of Compound 1 administered in the fasted state on Day 1. Beginning on Day 3 and continuing through to Day 6, subjects receive itraconazole 200 mg once daily (QD) in a fasted state. On Day 5, subjects receive Compound 1 administered in the fasted state, 1 hour after administration of itraconazole.
Results. Preliminary pharmacokinetic results evaluating the drug-drug interaction effect of a strong CYP3A inhibitor (itraconazole) on Compound 1 PK are presented, including 9 subjects from Cohort 12 receiving single doses of 2 mg Compound 1 under fasting conditions alone or in combination with once daily itraconazole 200 mg. Preliminary PK parameters are presented in Table 49 (all pharmacokinetic parameters of Table 49 are reported as Mean (% coefficient of variation), except for Tmax and t1/2, which are reported as Median (Min, Max)), and in FIG. 29 presenting the mean (SD) plasma concentration-time profiles of Compound 1.

[6] = pH 7.4 buffer (KH2PO4/NaOH), aqueous buffer, pH 7.4 Buffer, 37° C.
[7] = pH 7.4 buffer (KH2PO4/NaOH), aqueous buffer, pH 7.4 Buffer, RT
[8] = simulated gastric fluid, pH 1.0 (0.1N HCl), RT
[9] = simulated gastric fluid, pH 1.2 Buffer, 37° C.
[10] = 2 mg Compound 1, itraconazole 200 mg once daily, fasting
[11] = fasted, Day 5 (+ITZ 200 mg once daily)
[12] = single 2 mg dose, fasting, alone or with itraconazole 200 mg once daily

T1 sequence (Q06187 whole entry, species assumed): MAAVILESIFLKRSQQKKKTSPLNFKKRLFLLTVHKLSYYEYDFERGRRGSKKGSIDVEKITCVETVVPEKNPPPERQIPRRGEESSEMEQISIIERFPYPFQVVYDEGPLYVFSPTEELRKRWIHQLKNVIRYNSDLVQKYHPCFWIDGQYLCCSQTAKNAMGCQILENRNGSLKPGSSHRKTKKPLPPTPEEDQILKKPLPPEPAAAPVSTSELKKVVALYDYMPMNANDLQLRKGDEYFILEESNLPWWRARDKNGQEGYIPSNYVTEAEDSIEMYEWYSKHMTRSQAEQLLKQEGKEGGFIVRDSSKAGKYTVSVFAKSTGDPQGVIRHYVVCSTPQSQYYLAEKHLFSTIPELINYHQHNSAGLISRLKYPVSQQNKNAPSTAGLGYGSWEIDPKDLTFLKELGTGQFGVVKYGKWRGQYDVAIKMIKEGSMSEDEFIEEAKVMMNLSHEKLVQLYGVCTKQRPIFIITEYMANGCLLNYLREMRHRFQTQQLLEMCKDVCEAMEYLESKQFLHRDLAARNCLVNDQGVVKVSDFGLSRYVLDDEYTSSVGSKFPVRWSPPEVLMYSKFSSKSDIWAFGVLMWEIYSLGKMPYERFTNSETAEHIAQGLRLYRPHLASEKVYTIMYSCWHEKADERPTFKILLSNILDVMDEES

potency for BTK inhibition [1]: nM range
Solubility ([2]; Capryol PGMC, at least 48 hours, RT (liquid) or 40° C. (semisolid excipients)): 38.1 mg/g
Solubility ([2]; Gelucire 44/14, at least 48 hours, RT (liquid) or 40° C. (semisolid excipients)): 48.9 mg/g
Solubility ([2]; Gelucire 50/13, at least 48 hours, RT (liquid) or 40° C. (semisolid excipients)): 45.9 mg/g
Solubility ([2]; Kolliphor ELP, at least 48 hours, RT (liquid) or 40° C. (semisolid excipients)): 36.5 mg/g
Solubility ([2]; Kolliphor HS 15, at least 48 hours, RT (liquid) or 40° C. (semisolid excipients)): 53.6 mg/g
Solubility ([2]; Kolliphor RH40, at least 48 hours, RT (liquid) or 40° C. (semisolid excipients)): 52.4 mg/g
Solubility ([2]; Labrafil M 1944 CS, at least 48 hours, RT (liquid) or 40° C. (semisolid excipients)): 10.7 mg/g
Solubility ([2]; Labrafil M 2125 CS, at least 48 hours, RT (liquid) or 40° C. (semisolid excipients)): 9.3 mg/g
Solubility ([2]; Labrasol ALF, at least 48 hours, RT (liquid) or 40° C. (semisolid excipients)): 68.1 mg/g
Solubility ([2]; Lauroglycol FCC, at least 48 hours, RT (liquid) or 40° C. (semisolid excipients)): 16.0 mg/g
Solubility ([2]; Maisine CC, at least 48 hours, RT (liquid) or 40° C. (semisolid excipients)): 16.7 mg/g
Solubility ([2]; Masester E8120, at least 48 hours, RT (liquid) or 40° C. (semisolid excipients)): 65.3 mg/g
Solubility ([2]; Miglyol 812N, at least 48 hours, RT (liquid) or 40° C. (semisolid excipients)): 2.9 mg/g
Solubility ([2]; Oleic Acid, at least 48 hours, RT (liquid) or 40° C. (semisolid excipients)): 21.0 mg/g
Solubility ([2]; PEG 400, at least 48 hours, RT (liquid) or 40° C. (semisolid excipients)): 77.3 mg/g
Solubility ([2]; Peceol, at least 48 hours, RT (liquid) or 40° C. (semisolid excipients)): 22.8 mg/g
Solubility ([2]; Sesame Oil, at least 48 hours, RT (liquid) or 40° C. (semisolid excipients)): 1.9 mg/g
Solubility ([2]; Span 80, at least 48 hours, RT (liquid) or 40° C. (semisolid excipients)): 12.2 mg/g
Solubility ([2]; Transcutol HP, at least 48 hours, RT (liquid) or 40° C. (semisolid excipients)): 118.6 mg/g
Solubility ([2]; Tween 20, at least 48 hours, RT (liquid) or 40° C. (semisolid excipients)): 48.6 mg/g
Solubility ([2]; Tween 80, at least 48 hours, RT (liquid) or 40° C. (semisolid excipients)): 49.0 mg/g
Solubility ([2]; Vitamin E TPGS, at least 48 hours, RT (liquid) or 40° C. (semisolid excipients)): 40.8 mg/g
Solubility ([2]; in most of the screened excipients): > 30 mg/g
solubility at 4 h [3, 6]: 0.8 µg/mL (≈ 2.09 µM)
solubility at 24 h [3, 6]: 0.8 µg/mL (≈ 2.09 µM)
solubility at 24 h [3, 7]: 0.8 µg/mL (≈ 2.09 µM)
solubility at 48 h [3, 7]: 1.7 µg/mL (≈ 4.43 µM)
solubility at 4 h [3, 8]: 0.7 µg/mL (≈ 1.83 µM)
solubility at 24 h [3, 8]: 0.8 µg/mL (≈ 2.09 µM)
solubility at 48 h [3, 8]: 1.6 µg/mL (≈ 4.17 µM)
solubility at 4 h [3, 9]: 0.9 µg/mL (≈ 2.35 µM)
solubility at 24 h [3, 9]: 0.9 µg/mL (≈ 2.35 µM)
solubility at 4 h ([3]; Water (pH 5.0), 37° C.): 0.6 µg/mL (≈ 1.56 µM)
solubility at 24 h ([3]; Water (pH 5.0), 37° C.): 0.7 µg/mL (≈ 1.83 µM)
Compound 1 Related Impurities, RRT 0.73 ([4]; T = 0): 0.05 % adjusted area
Compound 1 Related Impurities, RRT 0.79 ([4]; T = 0): <LOQ
Compound 1 Related Impurities, RRT 0.84 ([4]; T = 0): 0.07 % adjusted area
Compound 1 Related Impurities, RRT 0.91 ([4]; T = 0): 0.10 % adjusted area
Compound 1 Related Impurities, RRT 0.93 ([4]; T = 0): 0.06 % adjusted area
Compound 1 Related Impurities, RRT 1.08 ([4]; T = 0): 0.07 % adjusted area
Compound 1 Related Impurities, RRT 1.13 ([4]; T = 0): 0.36 % adjusted area
Compound 1 Related Impurities, Total ([4]; T = 0): 0.71 % adjusted area
Compound 1 Related Impurities, RRT 0.73 ([4]; T = 3 weeks): 0.06 % adjusted area
Compound 1 Related Impurities, RRT 0.79 ([4]; T = 3 weeks): <LOQ
Compound 1 Related Impurities, RRT 0.84 ([4]; T = 3 weeks): 0.05 % adjusted area
Compound 1 Related Impurities, RRT 0.91 ([4]; T = 3 weeks): 0.07 % adjusted area
Compound 1 Related Impurities, RRT 0.93 ([4]; T = 3 weeks): 0.07 % adjusted area
Compound 1 Related Impurities, RRT 1.08 ([4]; T = 3 weeks): 0.07 % adjusted area
Compound 1 Related Impurities, RRT 1.13 ([4]; T = 3 weeks): 0.30 % adjusted area
Compound 1 Related Impurities, Total ([4]; T = 3 weeks): 0.62 % adjusted area
Compound 1 Related Impurities, RRT 0.47 ([4]; T = 8 weeks): 0.07 % adjusted area
Compound 1 Related Impurities, RRT 0.73 ([4]; T = 8 weeks): 0.05 % adjusted area
Compound 1 Related Impurities, RRT 0.79 ([4]; T = 8 weeks): <LOQ
Compound 1 Related Impurities, RRT 0.84 ([4]; T = 8 weeks): 0.06 % adjusted area
Compound 1 Related Impurities, RRT 0.91 ([4]; T = 8 weeks): 0.08 % adjusted area
Compound 1 Related Impurities, RRT 0.93 ([4]; T = 8 weeks): 0.05 % adjusted area
Compound 1 Related Impurities, RRT 1.04 ([4]; T = 8 weeks): 0.12 % adjusted area
Compound 1 Related Impurities, RRT 1.08 ([4]; T = 8 weeks): 0.06 % adjusted area
Compound 1 Related Impurities, RRT 1.13 ([4]; T = 8 weeks): 0.32 % adjusted area
Compound 1 Related Impurities, Total ([4]; T = 8 weeks): 0.81 % adjusted area
increase of AUCinf on coadministration of itraconazole [5, 10]: 15%
increase of Cmax on coadministration of itraconazole [5, 10]: 23%
AUC(0-inf) ([5]; fasted, Day 1 (Alone)): 46.7 ng·h/mL
Cmax ([5]; fasted, Day 1 (Alone)): 21.2 ng/mL
T1/2 ([5]; fasted, Day 1 (Alone)): 3.13 h
Tmax ([5]; fasted, Day 1 (Alone)): 1.0 h
AUC(0-inf) [5, 11]: 54.4 ng·h/mL
Cmax [5, 11]: 26.3 ng/mL
T1/2 [5, 11]: 3.14 h
Tmax [5, 11]: 1.5 h
AUC0-inf, % GMR ITZ/Alone ([5]; Cohort 12, 2 mg, fasted): 115%
Cmax, % GMR ITZ/Alone ([5]; Cohort 12, 2 mg, fasted): 123%
effect of a strong CYP3A inhibitor on PK ([5]; coadministration of itraconazole): no clinically significant effect
mean plasma Tmax [5, 12]: 1.0 to 1.5 h
terminal half-life [5, 12]: approximately 3 hours
SMILES: C=CC(=O)N1CCC[C@@H](c2c(F)cc(C(N)=O)c3[nH]c4c(c23)CCCCC4)C1 [Compound 1, (S)-1-(1-acryloylpiperidin-3-yl)-2-fluoro-5,6,7,8,9,10-hexahydrocyclohepta[b]indole-4-carboxamide]

From US20250243176A1, “(S)-1-(1-ACRYLOYLPIPERIDIN-3-YL)-2-FLUORO-5,6,7,8,9,10-HEXAHYDROCYCLO HEPTA[B]INDOLE-4-CARBOXAMIDE, AND RELATED CRYSTALLINE FORMS, COMPOSITIONS, AND METHODS THEREOF” (GB005, Inc., priority 2021, published 2025)
